Reference: patent US20260209260A1, “VECTORIZED NHC IRIDIUM(III) COMPLEXES AND USE THEREOF IN PHOTODYNAMIC THERAPY AND/OR DIAGNOSTIC” (CENTRE NATIONAL DE LA RECHERCHE SCIENTIFIQUE, priority 2022, published 2026)
Where two headings read alike, the source gives them in different places.

Legend:
[1] = Lipophilicity: octanol-water partition coefficient, shake-flask method
Procedure: The octanol-water partition coefficients (P) of all the complexes were determined using a shake-flask method^8. Water (100 mL, distilled after milli-Q purification) and n-octanol (100 mL, Sigma Aldrich, ACS spectrophotometric grade, ≥99%) were shaken together for 24 h to allow saturation of both phases. Stock solutions of the compounds ([…]) were prepared in the aqueous phase. Aliquots (2 mL) of each of these stock solutions were then added to an equal volume of the n-octanol phase. The resultant biphasic solution was mixed for 15 min and then centrifuged (3000 tr/min, 5 min) to separate the phases. The concentrations of the complex in the organic and aqueous phases were then determined using UV absorbance spectroscopy (260 nm). The blank is the water saturated with n-octanol. Log P was defined as logarithm of the ratio of the concentrations of the complex in the organic and aqueous phases (values reported are the means of at least three separated determinations).
The Log P values have been determined by a classical shake-flask method.

[2] = UV/Vis absorption spectra; assay type: physicochemical; conditions: room temperature; for λmax (nm) ε (M^−1 · cm^−1): air-saturated CH2Cl2 or CH2Cl2/MeOH (1:1), 50 μM, ε in brackets, sh = shoulder; for maximum absorption, lowest-lying bands in the visible region over 360 nm: CH2Cl2 or CH2Cl2/MeOH (1:1)
Procedure: UV/Vis absorption spectra were recorded at RT on solutions contained in quartz cuvettes (optical pathlength 1 cm, Hellma®) with a PerkinElmer® UV/VIS/NIR spectrophotometer Lambda 950 and a PerkinElmer® detector UV/VIS/NIR Accessory 2D Detector Module.

[3] = Luminescence emission spectra and quantum yield; assay type: physicochemical; conditions: for λem: CH2Cl2, room temperature, λexc 365 nm or 470 nm; for ΦP emission phosphorescence quantum yield: room temperature, reference POPOP in hexane or rhodamine B in ethanol
Procedure: Fluorescence and phosphorescence emission spectra were obtained with a HORIBA JOBIN YVON, fluromax-4 and spectrofluorometer.
Luminescence quantum yields were measured according to the method of Demas and Crosby, on solution samples at RT. The quantum yield is defined as: […]
Where ΦP is the quantum yield of the sample, ΦR is the know quantum yield of the reference standard. […].
The luminescence spectra of vectorized iridium(III) complexes were determined in CH2Cl2 at room temperature (Table 3).

[4] = Emission lifetime measurement; assay type: physicochemical
Procedure: Fluorescence lifetime measurements were performed by an Edinburgh FLS920 spectrofluorimeter equipped with a TCC900 card for data acquisition in time-correlated single-photon counting experiments (0.5 ns time resolution) with a D2 lamp and an LDH—P-C-405 pulsed diode laser. The estimated experimental error is 2 nm on the band maximum (5% on the lifetime, 10% on the fluorescence quantum yield).
The emission lifetimes of biotin-vectorized complexes (I-a) to (I-l) range from 138 ns to 411 ns, among them, the lifetime of biotin-vectorized complexes (I-c), (I-e), (I-k) are 411, 224, and 322 ns respectively. The emission lifetimes of FTS-vectorized complexes (II-a) to (II-l) range from 167 ns to 486 ns, among them, the lifetime of FTS-vectorized complexes (II-c) and (II-k) are 319 and 486 ns respectively. The emission lifetimes of PSMA-vectorized complexes (III-a) to (III-l) are in the range of 159-649 ns, among them, the lifetime of complexes (III-a) and (III-k) were 248 and 649 ns, respectively. The emission lifetimes of Fc-vectorized complexes (IV-a) to (IV-l) are in the range of 178-228 ns.

[5] = system: MC3T3 osteoblast cells (non-tumor); test: Cell viability assay (MTT), dark and blue light; assay type: cell-based, Murine; conditions: in the dark, 72 h; read-out: GI50 MC3T3 Dark
Procedure: (§1) Cells were grown in humidified incubators at 37° C. in 5% CO2. Murine MC3T3 osteoblast and NIH-3T3 fibroblast cells-used as non-tumor cell models-were cultured in a-MEM medium and DMEM medium supplemented with 10% fetal bovine serum (FBS) and 1% Penicillin/Streptomycin (P/S) antibiotics, respectively. Human T24 bladder, MGHU3 bladder, Scaber bladder, A549 lung, MCF7 breast, MiaPaCa2 pancreas cancer cells were cultured in DMEM medium supplemented with 10% FBS and 1% P/S antibiotics. […] Human Hela cervix and HepG2 liver cancer cells were cultured EMEM medium supplemented with 10% FBS and 1% P/S antibiotics.
(§2) MTT reagent (3-(4,5-dimethylthiazol-2-yl)-2,5-diphenyltetrazolium bromide) was used to determine cell death as originally described by Mosmann. Briefly, cells were seeded from 5,000 to 10,000 cells/well in 24-well plates (1 mL) depending on the cell type and allowed to attach overnight. The complexes were prepared in DMSO. The concentration of the complexes was calculated based on the elemental composition of the complexes determined by the elemental analyses. All cell viability experiments were carried out with a fixed concentration of 0.1% (v/v) DMSO. After 72 h of treatment, cells were incubated at 37° C. and 5% CO2 with 25 μL of MTT solution (5 mg/ml; Sigma-Aldrich) in 24-well plates for 3 to 4 h. After solubilization with 500 μL of DMSO, formazan was quantified spectrophotometrically with a microplate reader at 570 nm absorbance (ClarioSTAR, BMG LabTech). […] All the results were calculated from data obtained in at least three independent experiments performed in triplicate.
(§3) Two sets of experiments were conducted in parallel for each complex to be studied:
(§4) 1. The cells were incubated with the different complexes (in the dark) for 72 h.
(§5) 2. The cells were incubated for 8 h with the different complexes (in the dark), then irradiated for 10 min, followed by an incubation in the dark up to 72 h.

[6] = system: NIH-3T3 fibroblast cells (non-tumor); test: Cell viability assay (MTT), dark and blue light; assay type: cell-based, Murine; conditions: for Photosensitizing index (PI) NIH-3T3: dark vs blue light 458 nm
Procedure: as §1, §2, §3, §4, §5

[7] = system: T24 bladder cancer cells; test: Cell viability assay (MTT), dark and blue light; assay type: cell-based, Human
Procedure: as §1, §2, §3, §4, §5

[8] = system: C4-2B prostate cancer cells (PSMA-positive); test: Cell viability assay (MTT), dark and blue light; assay type: cell-based, Human; conditions: for Photosensitizing index (PI) C4-2b: dark vs blue light 458 nm
Procedure: (§6) Cells were grown in humidified incubators at 37° C. in 5% CO2. Murine MC3T3 osteoblast and NIH-3T3 fibroblast cells-used as non-tumor cell models-were cultured in a-MEM medium and DMEM medium supplemented with 10% fetal bovine serum (FBS) and 1% Penicillin/Streptomycin (P/S) antibiotics, respectively. Human T24 bladder, MGHU3 bladder, Scaber bladder, A549 lung, MCF7 breast, MiaPaCa2 pancreas cancer cells were cultured in DMEM medium supplemented with 10% FBS and 1% P/S antibiotics. Human ASPC-1 pancreas, PC-3 prostate, DU-145 prostate, C4-2B prostate and 22rV1 prostate cancer cells were cultured in RPMI medium supplemented with 10% FBS and 1% P/S antibiotics. Human Hela cervix and HepG2 liver cancer cells were cultured EMEM medium supplemented with 10% FBS and 1% P/S antibiotics.
as §2
(§7) Irradiation was conducted using an in-house device, a series of blue light LEDs selected according to the absorption spectra of the compounds at 458 nm wavelength with an emitted power of 9.6 Watts. The light fluence was measured at 458 nm with an optical power meter Thorlabs PM100A at different distances between the cell layer and the light source (5 and 10 cm).
as §3, §4, §5

[9] = system: PC-3 prostate cancer cells (PSMA-negative); test: Cell viability assay (MTT), dark and blue light; assay type: cell-based, Human; conditions: for SI (vs NIH-3T3) PC-3 Blue: blue light 458 nm; for Photosensitizing index (PI) PC-3: dark vs blue light 458 nm
Procedure: as §6, §2, §7, §3, §4, §5

[10] = 8 h in the dark, blue light 458 nm 10 min, then dark up to 72 h, read-out: GI50 NIH-3T3 Blue
[11] = in the dark, 72 h, read-out: GI50 NIH-3T3 Dark
[12] = n-octanol/water, shake-flask, mean of at least three determinations
[13] = NIH-3T3, blue light, read-out: GI50
[14] = 8 h in the dark, blue light 458 nm 10 min, then dark up to 72 h, read-out: GI50 PC-3 Blue
[15] = PC3, blue light, read-out: GI50
[16] = in the dark, 72 h, read-out: GI50 PC-3 Dark

SMILES	Log P [1]	λmax (nm) ε (M^−1 · cm^−1) [2]	λem [3]	ΦP emission phosphorescence quantum yield [3] [%]	τ1 emission lifetime [4] [ns]	GI50 [6, 10] [µM]	Photosensitizing index (PI) NIH-3T3 [6]	GI50 [6, 11] [µM]	Log P [1, 12]	maximum absorption, lowest-lying bands in the visible region over 360 nm [2]	GI50 [6, 13] [µM]	GI50 ([6]; NIH-3T3, dark, read-out: GI50) [µM]	Photosensitizing index (PI) C4-2b [8]	GI50 [9, 14] [µM]	GI50 [9, 15] [µM]	GI50 ([9]; PC3, dark, read-out: GI50) [µM]	SI (vs NIH-3T3) PC-3 Blue [9]	Photosensitizing index (PI) PC-3 [9]	GI50 [9, 16] [µM]	further results
F[P-](F)(F)(F)(F)F.O=C(CCCC[C@@H]1SC[C@@H]2NC(=O)N[C@@H]21)NCCCn1cc[n+]2[c]1[Ir-3]13([c]4cccc5ccc6ccc[n+]1c6c45)([c]1cccc4ccc5ccc[n+]3c5c14)[n+]1ccccc1-2 [I-i]	0.60 ± 0.06	320 (13840), 410 (3920) nm (M^−1 · cm^−1)	522-567 nm	<0.1	210	> 100	>1	> 100												GI50 [5]: 50.2 µM; GI50 ([7]; 8 h in the dark, blue light 458 nm 10 min, then dark up to 72 h, read-out: GI50 T24 Blue): 35.4 µM; Photosensitizing index (PI) T24 ([7]; dark vs blue light 458 nm): 1.4
Cc1ccc2[c](c1)[Ir-3]13([c]4cc(C)ccc4-c4cccc[n+]41)([c]1n(CCC(=O)NCCCC[C@H](NC(=O)N[C@@H](CCC(=O)O)C(=O)O)C(=O)O)cc[n+]1-c1cccc[n+]13)[n+]1ccccc1-2.F[P-](F)(F)(F)(F)F [III-b]		310 (sh) (23310), 379 (7615) nm (M^−1 · cm^−1)		1.8	194	> 100	did not show any photosensitizing effect	> 100	−0.14 ± 0.04	around 380 nm	> 100	> 100	did not show any photosensitizing effect	> 100	> 100	> 100	1.0	did not show any photosensitizing effect	> 100	
COC(=O)c1cccc2[c]1[Ir-3]13([c]4c(C(=O)OC)cccc4-c4cccc[n+]41)([c]1n(CCC(=O)NCCCC[C@H](NC(=O)N[C@@H](CCC(=O)O)C(=O)O)C(=O)O)cc[n+]1-c1cccc[n+]13)[n+]1ccccc1-2.F[P-](F)(F)(F)(F)F [III-d]		370 (13650), 452 (sh) (565) nm (M^−1 · cm^−1)	498 nm	2.1	219	> 100	did not show any photosensitizing effect	> 100	−0.52 ± 0.01	around 370 nm	> 100	> 100	did not show any photosensitizing effect	> 100	> 100	> 100	1.0	did not show any photosensitizing effect	> 100	
F[P-](F)(F)(F)(F)F.O=C(O)CC[C@H](NC(=O)N[C@@H](CCCCNC(=O)CCn1cc[n+]2[c]1[Ir-3]13([c]4ccccc4-c4ccc5ccccc5[n+]41)([c]1ccccc1-c1ccc4ccccc4[n+]13)[n+]1ccccc1-2)C(=O)O)C(=O)O [III-g]	0.33 ± 0.01	334 (18100), 436 (4280) nm (M^−1 · cm^−1)	593 nm	0.1	191	> 100		> 100			> 100	> 100		48.7	48.7	> 100	>2.1		≥ 100	GI50 ([8]; 8 h in the dark, blue light 458 nm 10 min, then dark up to 72 h, read-out: GI50 C4-2b Blue): 17.6 µM; GI50 ([8]; C4-2b, blue light, read-out: GI50): 17.6 µM; Photosensitizing index (PI) ([8]; C4-2b, dark vs blue light): 1.2; GI50 ([8]; C4-2b, dark, read-out: GI50): 21.3 µM; SI (vs NIH-3T3) C4-2b Blue ([8]; blue light 458 nm): >5.7; GI50 ([8]; in the dark, 72 h, read-out: GI50 C4-2b Dark): 21.3 µM; Photosensitizing index (PI) ([9]; PC3, dark vs blue light): >2.1
